Assays:
whole adult planarians = conditions: 0.22-22 mg/L, 12 days, control points at 7 and 12 days; for Concentration above which behavioral problems potentially linked to cognitive problems in the planarian are observed: adhesion, speed of movement, rest, phototaxis, scrunching
[1] = hazard statements in words; cited from earlier work

Which “Concentration above which significant mortality of planarian is observed according to Zhang et al., Neurotoxicology and Teratology, 2019” value (whole adult planarians) does the source give for CC(C)CC(C)Nc1ccc(Nc2ccccc2)cc1 (centres unmarked) [Example 22, N-(1,3-Dimethylbutyl)-N′-phenyl-p-phenylenediamine] here?
Its value is 4.8 mg/L.

And the “Concentration above which behavioral problems potentially linked to cognitive problems in the planarian are observed” value (whole adult planarians)?
Its value is 1.5 µg/mL.

And the “Toxicity (confirmed toxicity, ECHA substance information)” value (“Toxicity” below) [1]?
The value was “Harms fertility or has a negative impact”.

For c1ccc(Nc2cccc3ccccc23)cc1 [Example 19, N-phenylnaphthalene-1-amine], which “Concentration above which significant mortality of planarian is observed according to Zhang et al., Neurotoxicology and Teratology, 2019” value (whole adult planarians) is on record?
The value was 6.9 mg/L.

And the “Concentration above which behavioral problems potentially linked to cognitive problems in the planarian are observed” value (whole adult planarians)?
Its value is 2.2 to 3.9 µg/mL.

Which “Toxicity” value [1] does the source give for CC(C)(C)c1cc(Cc2cc(C(C)(C)C)c(O)c(C(C)(C)C)c2)cc(C(C)(C)C)c1O [Example 3, 4,4′-Methylene-bis-(2,6-di-tert-butylphenol)] here?
The value was “Under evaluation as an endocrine”.

Which “Toxicity” value [1] does the source give for c1ccc(Nc2ccc(NC3CCCCC3)cc2)cc1 [CPPD, N-cyclohexyl-N′-phenyl-p-phenylenediamine] here?
The value was “Is toxic to aquatic life with long-term”.

For c1ccc(Nc2ccc(Nc3ccccc3)cc2)cc1 [DPPD, N,N′-diphenyl-p-phenylenediamine], which “Toxicity” value [1] is on record?
Its value is “Is harmful to aquatic life with long-term”.

From patent US20260078239A1, “USE OF AN ANTIOXIDANT FOR REDUCING AND/OR PREVENTING THE TOXICITY OF A RUBBER COMPOSITION” (NYCO, priority 2022, published 2026)
